Assay results published in patent US12486300B2, “Mithramycin oxime derivatives having increased selectivity and anti-cancer activity” (University of Kentucky Research Foundation, priority 2018, dated 2025).

System: PC3 Prostate Cancer Cells
Assay: Growth inhibition assay, PC3 cells
Format: cell-based
Details: Table 1D
Experimental: (§1) Growth inhibition assay to assess cytotoxicity in ETS vs non-ETS expressing cells. Cells were seeded in clear 96-well plates (VWR, Radnor, PA). Seeding densities were optimized for each cell line to support 5 days of linear growth. Following a 24 hours attachment period, cells in duplicate wells were treated with half-log increments of respective compounds (0 nM and 0.3 nM-10 μM). Working stocks were prepared from an initial 10 mM drug stock diluted in either 100% ethanol or dimethyl sulfoxide (DMSO). All wells contained a final concentration of 0.1% (v/v) respective organic solvent. Immediately following treatment, cell viability was measured for vehicle control (Day 0) wells. Cell viability was measured in the remaining wells after 72 hours of incubation with compound or vehicle control (Day 3).
(§2) Percent viability, relative to the initial cell seeding concentration, was calculated by ((TreatmentDay3−Vehicle ControlDay0)/(Vehicle ControlDay3−Vehicle ControlDay0))×100. Percent cell viability was plotted as a function of compound concentration (Log [M]) and the data were fit using a 3-parameter non-linear model with fixed Hill slope constant and 4-parameter non-linear model with variable Hill slope constant. The model with the best curve fit was used to estimate the GI50 in GraphPad Prism 7.0 software (GraphPad Software, La Jolla, CA). The 3-parameter equation used was Y=Bottom+(Top−Bottom)/(1+10[…]((X−Log[IC50]))). The 4-parameter equation used was Y=Bottom+(Top−Bottom)/(1+10[…]((Log[IC50]−X)*Hillslope)). Top and Bottom are plateaus in the units of the Y-axis (response). IC50 is the response (Y-axis) halfway between Top and Bottom plateaus.
(§3) All compounds were tested at least once in multi-well replicates and each experiment included one a control compound (i.e., MTM) to ensure the stable response of the cell lines. The selectivity index was estimated by determining the ratio of GI50 estimates between ETS fusion negative and ETS fusion positive cell lines.

Row | SMILES | EC50 [nM]
1 | CO[C@H](/C(=N/OCC(=O)N[C@@H](Cc1c[nH]c2ccccc12)C(N)=O)[C@@H](O)[C@@H](C)O)[C@@H]1Cc2cc3cc(O[C@H]4C[C@@H](O[C@H]5C[C@@H](O)[C@H](O)C(C)O5)[C@H](O)C(C)O4)c(C)c(O)c3c(O)c2C(=O)[C@H]1O[C@H]1C[C@@H](O[C@H]2C[C@@H](O[C@H]3C[C@](C)(O)[C@H](O)C(C)O3)[C@H](O)C(C)O2)[C@H](O)C(C)O1 (stereo partly shown) [MTM (42)] | 3550

System: TC32 Ewing sarcoma cells, expressing EWS-FLI1
Assay: Growth inhibition assay, TC32 cells
Format: cell-based
Details: Table 1D; read-out: TC-32 Mean EC50
Experimental: as §1, §2, §3

Row | SMILES | EC50 [nM]
2 | CO[C@H](/C(=N/OCC(=O)N[C@@H](Cc1c[nH]c2ccccc12)C(N)=O)[C@@H](O)[C@@H](C)O)[C@@H]1Cc2cc3cc(O[C@H]4C[C@@H](O[C@H]5C[C@@H](O)[C@H](O)C(C)O5)[C@H](O)C(C)O4)c(C)c(O)c3c(O)c2C(=O)[C@H]1O[C@H]1C[C@@H](O[C@H]2C[C@@H](O[C@H]3C[C@](C)(O)[C@H](O)C(C)O3)[C@H](O)C(C)O2)[C@H](O)C(C)O1 (stereo partly shown) [MTM (42)] | 304

Same assay, conditions: ratio of GI50 PC3 to TC32

Row | SMILES | PC:TC32 (cellular selectivity)
3 | CO[C@H](/C(=N/OCC(=O)N[C@@H](Cc1c[nH]c2ccccc12)C(N)=O)[C@@H](O)[C@@H](C)O)[C@@H]1Cc2cc3cc(O[C@H]4C[C@@H](O[C@H]5C[C@@H](O)[C@H](O)C(C)O5)[C@H](O)C(C)O4)c(C)c(O)c3c(O)c2C(=O)[C@H]1O[C@H]1C[C@@H](O[C@H]2C[C@@H](O[C@H]3C[C@](C)(O)[C@H](O)C(C)O3)[C@H](O)C(C)O2)[C@H](O)C(C)O1 (stereo partly shown) [MTM (42)] | 8.5
4 | CCON=C(C(O)C(C)O)C(OC)C1Cc2cc3cc(OC4CC(OC5CC(O)C(O)C(C)O5)C(O)C(C)O4)c(C)c(O)c3c(O)c2C(=O)C1OC1CC(OC2CC(OC3CC(C)(O)C(O)C(C)O3)C(O)C(C)O2)C(O)C(C)O1 (stereo not shown) [MTM (4)] | 1.15
5 | COC(C(=NOCC(C)C)C(O)C(C)O)C1Cc2cc3cc(OC4CC(OC5CC(O)C(O)C(C)O5)C(O)C(C)O4)c(C)c(O)c3c(O)c2C(=O)C1OC1CC(OC2CC(OC3CC(C)(O)C(O)C(C)O3)C(O)C(C)O2)C(O)C(C)O1 (stereo not shown) [MTM (7Z)] | 1.15
6 | COC(C(=NNC(=O)CCCCCN1C(=O)C=CC1=O)C(O)C(C)O)C1Cc2cc3cc(OC4CC(OC5CC(O)C(O)C(C)O5)C(O)C(C)O4)c(C)c(O)c3c(O)c2C(=O)C1OC1CC(OC2CC(OC3CC(C)(O)C(O)C(C)O3)C(O)C(C)O2)C(O)C(C)O1 (stereo not shown) [MTM (33)] | 3.9
7 | COC(C(=NOCC(=O)NCc1ccc2[nH]ccc2c1)C(O)C(C)O)C1Cc2cc3cc(OC4CC(OC5CC(O)C(O)C(C)O5)C(O)C(C)O4)c(C)c(O)c3c(O)c2C(=O)C1OC1CC(OC2CC(OC3CC(C)(O)C(O)C(C)O3)C(O)C(C)O2)C(O)C(C)O1 (stereo not shown) [MTM (65)] | 20.1
8 | COC(C(=NOCC(=O)Nc1ccc2cnccc2c1)C(O)C(C)O)C1Cc2cc3cc(OC4CC(OC5CC(O)C(O)C(C)O5)C(O)C(C)O4)c(C)c(O)c3c(O)c2C(=O)C1OC1CC(OC2CC(OC3CC(C)(O)C(O)C(C)O3)C(O)C(C)O2)C(O)C(C)O1 (stereo not shown) [MTM (75)] | 118
9 | COC(C(=NOCC(=O)NC(Cc1c[nH]c2ccccc12)C(=O)Nc1ccccc1)C(O)C(C)O)C1Cc2cc3cc(OC4CC(OC5CC(O)C(O)C(C)O5)C(O)C(C)O4)c(C)c(O)c3c(O)c2C(=O)C1OC1CC(OC2CC(OC3CC(C)(O)C(O)C(C)O3)C(O)C(C)O2)C(O)C(C)O1 (stereo not shown) [MTM (47)] | 2.7
10 | COC(C(=NOCC(=O)Nc1ccc2[nH]cnc2c1)C(O)C(C)O)C1Cc2cc3cc(OC4CC(OC5CC(O)C(O)C(C)O5)C(O)C(C)O4)c(C)c(O)c3c(O)c2C(=O)C1OC1CC(OC2CC(OC3CC(C)(O)C(O)C(C)O3)C(O)C(C)O2)C(O)C(C)O1 (stereo not shown) [MTM (71)] | 3.2
11 | COC(=O)C(Cc1ccccc1)NC(=O)C(Cc1c[nH]c2ccccc12)NC(=O)CON=C(C(O)C(C)O)C(OC)C1Cc2cc3cc(OC4CC(OC5CC(O)C(O)C(C)O5)C(O)C(C)O4)c(C)c(O)c3c(O)c2C(=O)C1OC1CC(OC2CC(OC3CC(C)(O)C(O)C(C)O3)C(O)C(C)O2)C(O)C(C)O1 (stereo not shown) [MTM (25)] | 5.98
12 | COC(C(=NOCC(=O)NC(Cc1c[nH]c2ccccc12)C(=O)NCc1c[nH]c2ccccc12)C(O)C(C)O)C1Cc2cc3cc(OC4CC(OC5CC(O)C(O)C(C)O5)C(O)C(C)O4)c(C)c(O)c3c(O)c2C(=O)C1OC1CC(OC2CC(OC3CC(C)(O)C(O)C(C)O3)C(O)C(C)O2)C(O)C(C)O1 (stereo not shown) [MTM (48)] | 2.30
13 | COC(C(=NOCCCCc1c[nH]c2ccccc12)C(O)C(C)O)C1Cc2cc3cc(OC4CC(OC5CC(O)C(O)C(C)O5)C(O)C(C)O4)c(C)c(O)c3c(O)c2C(=O)C1OC1CC(OC2CC(OC3CC(C)(O)C(O)C(C)O3)C(O)C(C)O2)C(O)C(C)O1 (stereo not shown) [MTM (22)] | 1.54
